# Experimental data from US20160115540A1, “PRODRUGS AND DRUGS” (Biogen MA Inc., priority 2013, published 2016).
# Entries after “also recorded” stand apart in the source; their conditions may differ. Counter-ions that a name gives are not always drawn.
# Legend:
# hippocampus = assay: Transcriptional profiling on Affymetrix GeneChips, single dose, naïve mice: hippocampus; type: in vivo, C57BL/6 mice; conditions: for Tmtc3 (1458305_PM_at) differential expression: 7 hr; for Number of differentially expressed genes identified: Hippocampus: Naïve, Single Dose
# Protocol: Treated mice were sacrificed at 2, 7, or 12 hours. Tissues (liver, spleen, kidney, jejunum, cortex, hippocampus, striatum and whole blood) were collected and analyzed by transcriptional profiling on mouse Affymetrix GeneChips.
# Tissues (liver, spleen, kidney, jejunum, cortex, hippocampus, striatum and whole blood) were collected and analyzed by transcriptional profiling on mouse Affymetrix GeneChips.
# Animals were exposed to CO2 and whole blood collected via cardiac puncture. Two 100 μl aliquots of whole blood were collected in 1.5 mL microcentrifuge tubes and snap frozen in liquid nitrogen. Peripheral (liver, spleen, kidney and jejunum) and CNS brain (cerebellum, hippocampus, striatum and cortex) tissues were harvested and snap frozen in liquid nitrogen, with special care taken to collect tissues of similar size and from the same location. All samples were stored at −80° C. until RNA extraction was conducted.
# For RNA preparation, frozen tissues were placed in 2 mL RNAse-free 96-well blocks with 1.5 mL QIAzol Lysis Reagent (QIAgen) and a 3.2 mm stainless steel bead (BioSpec Products, Bartlesville, Okla.). Tissues were disrupted for four cycles of 45 seconds in a Mini-Beadbeater (Biospec Products). RNA was extracted in chloroform and the aqueous phase was mixed with an equal volume of 70% ethanol. Extracted RNA was applied to RNeasy 96 plates and purified by the spin method according to the manufacturer's protocol (RNeasy 96 Universal Tissue Protocol, QIAgen, Hilden Germany).
# Automated sample amplifications and biotin labelings were carried out using the NuGEN Ovation RNA Amplification system V2 (Cat #3100), Ovation WB reagent (Cat #1300) and Encore Biotin module (Cat #4200) (NuGEN Technologies, Inc, San Carlos, Calif.) according to manufacturer's recommendations using an Arrayplex automated liquid handler (Beckman Coulter, Indianapolis, Ind.). Two micrograms of biotin labeled sscDNA probe were hybridized to Affymetrix GeneChip Affymetrix HT_MG-430_PM plate arrays with modified conditions as described in Allaire et al. Washing and staining of the hybridized arrays were completed as described in the GeneChip Expression analysis technical manual for HT plate arrays using the Genechip® Array Station (Affymetrix, Santa Clara, Calif.) with modifications as described in Allaire et al. The processed GeneChip® plate arrays were scanned using GeneTitan scanner (Affymetrix, Santa Clara, Calif.).
# Affymetrix scans were subject to quality control (QC) measures. These tests included a visual inspection of the distribution of raw signal intensities and an assessment of RNA degradation, relative log expression (RLE), and normalized unsealed standard error (NUSE). All sample scans that passed these QC metrics were included in the analysis.
# All CEL files were subjected to GC-content-based Robust Multi-array Average (GCRMA) normalization (version 2.20.0) (Irizarry R A, et al. Nucleic Acids Res 2003; 31:e15; Li C, et al. Genome Biol 2001; 2:[…]0032). Expression levels were log (base 2) transformed.
# All calculations and analyses were carried out using R (version 2.11.1) and Bioconductor computational tools (Gentleman R. Springer Science+Business Media 2005).
# NK cells = assay: Flow cytometry of NK cell surface markers (MFI) in naïve mice; type: in vivo, C57Bl/6 mice; conditions: 12 hr after 100 mpk PO
# Text: Protein expression is quantified by mean fluorescent intensity (MFI).
# 12-hours post-dose, mice were sacrificed and blood, spleen, and inguinal lymph node were collected for analysis by flow cytometry.
# Transcriptional differences in NK cell markers were confirmed at the protein level by flow cytometry. […] Protein expression was quantified by mean fluorescent intensity (MFI). […] 12-hours post-dose, mice were sacrificed and blood, spleen, and inguinal lymph node (iLN) were collected for analysis by flow cytometry.
# [1] = 100 mpk, vs Vehicle, 2 h after last dosing
# [2] = 100 mpk, vs Vehicle, 7 h after last dosing
# [3] = 100 mpk, vs Vehicle, 12 h after last dosing
# [4] = hippocampus, 100DMF-vs-100MMF, 2 h
# [5] = hippocampus, 100DMF-vs-Veh, 7 h
# [6] = hippocampus, 100MMF-vs-Veh, 2 h
# [7] = hippocampus, 100MMF-vs-Veh, 7 h
# [8] = hippocampus, 2 hr after single 100 mg/kg oral dose
smiles,measurement,setting,value
"COC(=O)/C=C/C(=O)OC [DMF, dimethyl fumarate]","Number of genes, DMF Only / MMF Only",hippocampus; Hippocampus,0
same,Tmtc3 (1458305_PM_at) differential expression,hippocampus; Hippocampus,−2.38
same,Number of differentially expressed genes identified: Hippocampus,"hippocampus; 100 mpk DMF-vs-100 mpk MMF, 2 h after last dosing",2
same,Number of differentially expressed genes identified: Hippocampus,"hippocampus; 100 mpk DMF-vs-100 mpk MMF, 7 h after last dosing",0
same,Number of differentially expressed genes identified: Hippocampus,"hippocampus; 100 mpk DMF-vs-100 mpk MMF, 12 h after last dosing",0
same,Number of differentially expressed genes identified: Hippocampus,hippocampus; [1],0
same,Number of differentially expressed genes identified: Hippocampus,hippocampus; [2],2
same,Number of differentially expressed genes identified: Hippocampus,hippocampus; [3],0
same,FC Dio2 (1418938_PM_at),hippocampus; [4],1.58
same,FC Tmtc3 (1458305_PM_at),hippocampus; [4],−1.88
same,differentially expressed genes,"hippocampus; hippocampus, 100DMF-vs-100MMF, 7 h",None
same,differentially expressed genes,"hippocampus; hippocampus, 100DMF-vs-100MMF, 12 h",None
same,differentially expressed genes,"hippocampus; hippocampus, 100DMF-vs-Veh, 2 h",None
same,FC Tmtc3 (1458305_PM_at),hippocampus; [5],−2.38
same,FC probe 1443353_PM_at,hippocampus; [5],−1.84
same,differentially expressed genes,"hippocampus; hippocampus, 100DMF-vs-Veh, 12 h",None
same,"Klrb1b (NK1.1) protein expression change, MFI difference compared to MMF 12 hr or vehicle control",NK cells; NK cells,differentially expressed; also recorded: Significant
same,"Klrc1 (Nkg2a) protein expression change, MFI difference compared to MMF 12 hr or vehicle control",NK cells; NK cells,differentially expressed; also recorded: Significant
same,"Klrd1 (CD94) protein expression change, MFI difference compared to MMF 12 hr or vehicle control",NK cells; NK cells,differentially expressed
same,"Klrk1 (NKG2d) protein expression change, MFI difference compared to MMF 12 hr or vehicle control",NK cells; NK cells,differentially expressed; also recorded: Significant
same,"Ncr1 (NKp46) protein expression change, MFI difference compared to MMF 12 hr or vehicle control",NK cells; NK cells,Not significant
same,Effects on NK cells in the spleen,NK cells; naïve mice,exerts effects on NK cells in the spleen
"COC(=O)/C=C/C(=O)O [MMF, monomethyl fumarate]","Number of genes, DMF Only / MMF Only",hippocampus; Hippocampus,6
same,Dnajc18 (1425077_PM_at) differential expression,"hippocampus; Hippocampus, 2 hr",−1.58
same,Heatr5b (1438085_PM_at) differential expression,"hippocampus; Hippocampus, 2 hr",−1.56
same,Kcnq3 (1458421_PM_at) differential expression,"hippocampus; Hippocampus, 2 hr",−1.50
same,Kpna4 (1417975_PM_at) differential expression,"hippocampus; Hippocampus, 2 hr",−1.51
same,Nfat5 (1426029_PM_a_at) differential expression,"hippocampus; Hippocampus, 2 hr",−1.51
same,Srgap2 (1434407_PM_at) differential expression,"hippocampus; Hippocampus, 2 hr",−1.50
same,Tmtc3 (1458305_PM_at) differential expression,hippocampus; Hippocampus,−2.40
same,Number of differentially expressed genes identified: Hippocampus,hippocampus; [1],3
same,Number of differentially expressed genes identified: Hippocampus,hippocampus; [2],2
same,Number of differentially expressed genes identified: Hippocampus,hippocampus; [3],1
same,FC Heatr5b (1438085_PM_at),hippocampus; [6],−1.56
same,FC Kpna4 (1417975_PM_at),hippocampus; [6],−1.51
same,FC Srgap2 (1434407_PM_at),hippocampus; [6],−1.50
same,FC Tmtc3 (1458305_PM_at),hippocampus; [7],−2.40
same,FC probe 1443353_PM_at,hippocampus; [7],−1.74
same,FC LOC100502895 (1435119_PM_at),"hippocampus; hippocampus, 100MMF-vs-Veh, 12 h",1.66
same,Dnajc18 mRNA fold change vs vehicle,hippocampus; [8],−1.58
same,Heatr5b mRNA fold change vs vehicle,hippocampus; [8],−1.56
same,Kcnq3 mRNA fold change vs vehicle,hippocampus; [8],−1.50
same,Kpna4 mRNA fold change vs vehicle,hippocampus; [8],−1.51
same,Nfat5 mRNA fold change vs vehicle,hippocampus; [8],−1.51
same,Srgap2 mRNA fold change vs vehicle,hippocampus; [8],−1.50
same,Tmtc3 mRNA fold change vs vehicle,"hippocampus; hippocampus, 7 hr after single 100 mg/kg oral dose",−2.40
